Assay results: patent publication US7605005B2, “Method of screening for agents that modulate Tysnd1 level or activity in a cell” (Riken, priority 2005, dated 2009)

What was measured:
[1] = tested on: Tysnd1; assay: Protease inhibition assay: processing of Acaa1 and Acox1 by recombinant Tysnd1; assay type: biochemical, mouse; conditions: preincubated 30 min at 25° C., then 12 h at 37° C., substrates Acaa1 and Acox1
[2] = target: T1, IDE (Homo sapiens, UniProt P14735); conditions: cited from earlier work
T1 sequence (P14735 1-1019): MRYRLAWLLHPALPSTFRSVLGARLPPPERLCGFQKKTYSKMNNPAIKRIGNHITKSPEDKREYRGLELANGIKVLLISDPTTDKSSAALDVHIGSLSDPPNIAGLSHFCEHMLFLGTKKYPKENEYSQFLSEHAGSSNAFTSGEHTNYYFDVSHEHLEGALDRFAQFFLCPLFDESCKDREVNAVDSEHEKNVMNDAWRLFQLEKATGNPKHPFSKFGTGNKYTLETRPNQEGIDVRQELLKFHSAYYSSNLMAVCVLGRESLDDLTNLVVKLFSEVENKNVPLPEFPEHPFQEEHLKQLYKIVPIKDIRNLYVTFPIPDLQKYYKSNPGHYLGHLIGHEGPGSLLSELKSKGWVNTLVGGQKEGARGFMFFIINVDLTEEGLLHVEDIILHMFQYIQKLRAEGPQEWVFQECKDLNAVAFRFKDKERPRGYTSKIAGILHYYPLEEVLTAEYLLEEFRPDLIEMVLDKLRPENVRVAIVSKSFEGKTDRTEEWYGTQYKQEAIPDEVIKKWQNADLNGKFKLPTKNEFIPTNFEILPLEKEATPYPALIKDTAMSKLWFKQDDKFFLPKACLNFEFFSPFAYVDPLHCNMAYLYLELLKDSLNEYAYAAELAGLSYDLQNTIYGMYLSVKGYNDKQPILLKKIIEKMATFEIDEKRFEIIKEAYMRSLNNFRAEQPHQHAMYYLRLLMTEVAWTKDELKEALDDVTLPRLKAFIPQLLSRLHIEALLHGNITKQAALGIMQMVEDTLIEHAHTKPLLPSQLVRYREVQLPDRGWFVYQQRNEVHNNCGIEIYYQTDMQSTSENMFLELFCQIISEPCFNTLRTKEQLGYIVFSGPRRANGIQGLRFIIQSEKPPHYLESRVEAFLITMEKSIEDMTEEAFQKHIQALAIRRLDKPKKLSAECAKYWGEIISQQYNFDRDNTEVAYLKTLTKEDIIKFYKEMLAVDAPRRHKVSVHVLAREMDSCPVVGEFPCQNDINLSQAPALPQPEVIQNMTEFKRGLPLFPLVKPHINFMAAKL

[3] = tested on: fatty acid oxidation; conditions: reference 80; cited from earlier work

| SMILES | Tysnd1 processing activity in the presence of protease inhibitor ([1]; inhibitor 1 mM) | Inhibition of peroxisomal protease IDE [2] | Fatty acid oxidation [3] | other results |
| --- | --- | --- | --- | --- |
| CCN1C(=O)C=CC1=O [NEM, N-ethylmaleimide] | completely abolished | inhibited | – | – |
| COc1ccc(CN2CCNCC2)c(OC)c1OC [trimetazidine] | – | – | inhibit | – |
| COc1ccccc1OCC(O)CN1CCN(CC(=O)Nc2c(C)cccc2C)CC1 (stereo not drawn) [ranolazine] | – | – | inhibit | – |
| c1cnc2c(c1)ccc1cccnc12 [1,10-phenanthroline] | Partial inhibition | – | – | – |
| CC(C)C[C@H](NC(=O)[C@H]1O[C@@H]1C(=O)O)C(=O)NCCCCN=C(N)N (relative stereo) [E64, trans-epoxysuccinyl-1-leucylamido-(4-guanidino) butane] | – | not | – | Tysnd1 processing activity in the presence of protease inhibitor ([1]; inhibitor 20 μM): resistant |
| CC(=O)N[C@@H](CC(C)C)C(=O)N[C@@H](CC(C)C)C(=O)N[C@H](C=O)CCCNC(=N)N [leupeptin] | – | not | – | Tysnd1 processing activity in the presence of protease inhibitor ([1]; inhibitor 10 μM): resistant |
